{"source": "patent US10066025B2", "about": "“Compositions and methods for detecting, treating and preventing diseases and disorders” (YALE UNIVERSITY, priority 2012, dated 2018)", "system": "HK-2 cells", "test": "HK-2 cell cisplatin toxicity (WST-1 viability, western blot)", "format": "cell-based, human", "details": "20 μM cisplatin, 24 hrs", "method": "Cultured HK-2 cells were incubated with 20 μM cisplatin for 24 hours with and without recombinant renalase. Renalase expression was examined by Western blot and cell viability (mitochondrial integrity) was determined spectrophotometrically using WST-1, a tetrazolium salt that is cleaved, by mitochondrial dehydrogenases of metabolically active and viable cells, to formazan (420-480 nm) (Boehringer Mannheim, Germany).\nHK2 cells (human proximal tubular line) obtained from ATTC (Manassas, Va., USA) were cultured in DMEM/F12 supplemented with glutamine, 10% FBS and antibiotics, and were maintained at 37° C. in 5% CO2. Cells were exposed to cisplatin (20 μM) in the presence or absence of renalase for 24 hrs, and cell viability was assessed by the WST1 method (Roche Applied Science, Germany). Cells were then harvested in RIPA buffer (20 mM Tris-HCl pH 7.5, 150 mM NaCl, 1 mM Na2EDTA, 1 mM EGTA, 1% NP-40, 1% sodium deoxycholate, 2.5 mM sodium pyrophosphate, 1 mM β-glycerophosphate, 1 mM Na3VO4, 1 μg/ml leupeptin) supplemented with a protease and phosphatase inhibitor cocktail (Roche Applied Science, Germany). Proteins were separated by SDS-PAGE and Western blotting was carried out using the following antibodies: anti-renalase monoclonal (Desir et al., 2012, J Am Heart Assoc. 1:e002634; (Lee et al., 2013, J Am Soc Nephrol 24:445-455); anti caspase 3 (Cell Signaling Technology, MA, USA) and anti Bcl2 (Thermo Scientific, USA). Necrotic injury in HK-2 cells (ATCC, Manassas, Va.) was induced with exposure to 2 mM H2O2 for 2-8 hr and lactate dehydrogenase (LDH) released into cell culture media was measured as described using a commercial LDH assay kit (Promega, Madison, Wis.) (Lee and Emala, 2002, American journal of physiology. Renal physiology 282:F844-852)."}
{"substance": "RP H220: histidine tagged RP-220, SEQ ID NO: 4, HHHHHHCIRFVSIDNKKRNIESSEIG (listed as Homo sapiens)", "values": [{"measurement": "cell survival / protection against cisplatin toxicity", "result": "improved HK-2 cell survival"}]}
